Measured values taken from ChEMBL document CHEMBL5120868, “Tuaimenal A, a Meroterpene from the Irish Deep-Sea Soft Coral Duva florida, Displays Inhibition of the SARS-CoV-2 3CLpro Enzyme” (J Nat Prod, 2022).

What was measured:
[1] = molecular target: Replicase polyprotein 1ab (Severe acute respiratory syndrome coronavirus 2, UniProt P0DTD1); test: Inhibition of recombinant SARS-CoV-2 3CLpro expressed in Escherichia coli BL21 using LGSAVLQ-rhodamine 110-dp as fluorogenic substrate preincubated for 15 mins followed by substrate addition by spectrophotometry analysis
[2] = molecular target: Replicase polyprotein 1ab (Severe acute respiratory syndrome coronavirus 2) (UniProt P0DTD1); test: Inhibition of recombinant SARS-CoV-2 3CLpro expressed in Escherichia coli BL21 at 20 uM using LGSAVLQ-rhodamine 110-dp as fluorogenic substrate preincubated for 15 mins followed by substrate addition by spectrophotometry analysis relative to control
[3] = molecular target: Replicase polyprotein 1ab (Severe acute respiratory syndrome coronavirus 2) (UniProt P0DTD1); test: Inhibition of recombinant SARS-CoV-2 3CLpro expressed in Escherichia coli BL21 at […] using LGSAVLQ-rhodamine 110-dp as fluorogenic substrate preincubated for 15 mins followed by substrate addition by spectrophotometry analysis relative to control

| SMILES | IC50 [1] | inhibition [2] | inhibition [3] |
| --- | --- | --- | --- |
| CC(C)=CCC/C(C)=C/CC[C@]1(C)C=Cc2c(C=O)c(O)c(C)c(O)c2O1 | 21 µM | 40% |  |
| NCCc1ccc(S(=O)(=O)F)cc1 |  |  | 100% |
